In brackets after ≈: the same amount, converted by molar mass.
Assays:
[1] = biological target: T1, Oxysterols receptor LXR-alpha (Homo sapiens, UniProt Q13133); test: Transrepression of recombinant human GAL4-DBD fused LXRalpha LBD expressed in HEK293 cells after 20 hrs by luciferase reporter gene assay; format: cell-based
T1 sequence (Q13133 whole entry): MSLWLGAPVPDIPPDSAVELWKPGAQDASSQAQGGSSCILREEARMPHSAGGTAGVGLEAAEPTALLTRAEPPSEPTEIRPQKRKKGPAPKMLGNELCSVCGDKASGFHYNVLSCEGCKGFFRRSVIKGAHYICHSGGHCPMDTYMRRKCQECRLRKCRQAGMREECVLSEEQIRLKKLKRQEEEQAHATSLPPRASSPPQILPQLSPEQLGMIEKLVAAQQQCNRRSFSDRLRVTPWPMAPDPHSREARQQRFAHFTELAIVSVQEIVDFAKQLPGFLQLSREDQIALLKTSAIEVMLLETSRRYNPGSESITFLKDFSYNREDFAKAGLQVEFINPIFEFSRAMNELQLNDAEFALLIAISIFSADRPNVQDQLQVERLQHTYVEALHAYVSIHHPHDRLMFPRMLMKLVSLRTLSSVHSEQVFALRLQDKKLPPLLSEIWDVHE

[2] = AUC in mouse at 30 mg/kg, po; format: ADME, organism-based; details: in vivo
[3] = AUC in mouse at 100 mg/kg, po; format: ADME, organism-based; details: in vivo
[4] = Cmax in mouse at 100 mg/kg, po; format: ADME, organism-based; parameters: dose 100 mg/kg, route oral; details: in vivo
[5] = biological target: T2, Nuclear receptor ROR-beta (Homo sapiens, UniProt Q92753); test: Transrepression of recombinant human GAL4-DBD fused RORbeta LBD expressed in HEK293 cells after 20 hrs by luciferase reporter gene assay; format: cell-based
T2 sequence (Q92753 whole entry): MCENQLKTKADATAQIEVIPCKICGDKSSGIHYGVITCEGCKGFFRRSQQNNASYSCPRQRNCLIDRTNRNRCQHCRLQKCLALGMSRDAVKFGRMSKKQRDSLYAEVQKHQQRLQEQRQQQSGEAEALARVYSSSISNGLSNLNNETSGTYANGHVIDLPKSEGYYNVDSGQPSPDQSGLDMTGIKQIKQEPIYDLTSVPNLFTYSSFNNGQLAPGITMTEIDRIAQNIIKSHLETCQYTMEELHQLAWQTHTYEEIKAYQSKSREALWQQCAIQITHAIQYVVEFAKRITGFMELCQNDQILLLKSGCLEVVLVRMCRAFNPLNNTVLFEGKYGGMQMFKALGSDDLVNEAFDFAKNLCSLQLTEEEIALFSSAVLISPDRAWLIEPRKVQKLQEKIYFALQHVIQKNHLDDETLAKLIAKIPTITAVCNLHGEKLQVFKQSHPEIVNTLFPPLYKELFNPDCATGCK

[6] = biological target: T3, Nuclear receptor ROR-gamma (Homo sapiens, UniProt P51449); test: Displacement of [3H]-Digoxin from recombinant human GST-fused RORgammat LBD after 1 to 4 hrs by scintillation counting method
T3 sequence (P51449 whole entry): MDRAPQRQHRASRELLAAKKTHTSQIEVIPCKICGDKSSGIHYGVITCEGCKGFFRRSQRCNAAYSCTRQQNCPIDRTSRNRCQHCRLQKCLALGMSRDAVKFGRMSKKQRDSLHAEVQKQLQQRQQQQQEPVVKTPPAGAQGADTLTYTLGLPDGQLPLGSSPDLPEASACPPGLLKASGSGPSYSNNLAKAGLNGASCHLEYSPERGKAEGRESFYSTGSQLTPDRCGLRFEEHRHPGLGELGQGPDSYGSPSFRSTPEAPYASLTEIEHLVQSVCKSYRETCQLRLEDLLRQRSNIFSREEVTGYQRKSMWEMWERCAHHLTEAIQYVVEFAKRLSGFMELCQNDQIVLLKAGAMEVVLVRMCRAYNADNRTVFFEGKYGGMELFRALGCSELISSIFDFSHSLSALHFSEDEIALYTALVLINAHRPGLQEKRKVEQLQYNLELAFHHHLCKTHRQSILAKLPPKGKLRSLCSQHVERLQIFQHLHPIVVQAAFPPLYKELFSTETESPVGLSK

[7] = Cmax in mouse at 30 mg/kg, po; format: ADME, organism-based; parameters: dose 30 mg/kg, route oral; details: in vivo
[8] = Stability in rat liver microsomes assessed as parent compound remaining after 2 hrs by LC-MS/MS analysis; format: ADME, microsome; details: read-out: Stability
[9] = system: Mus musculus; test: In-vivo transrepression of RORgammat in mouse assessed as inhibition of IL23-stimulated IL17 production at 100 mg/kg, po administered 30 mins before and 6 hrs after IL-23 injection in skin intradermally measured after 24 hrs by ELISA relative to control; format: functional
[10] = system: Mus musculus; test: In-vivo transrepression of RORgammat in mouse assessed as inhibition of IL23-stimulated IL17 production at 30 mg/kg, po administered 30 mins before and 6 hrs after IL-23 injection in skin intradermally measured after 24 hrs by ELISA relative to control; format: functional
[11] = Tmax in mouse at 100 mg/kg, po; format: ADME, organism-based; details: in vivo
[12] = biological target: T4, Nuclear receptor ROR-gamma (Mus musculus, UniProt P51450); test: (§1) Transrepression of recombinant mouse GAL4-DBD fused RORgammat LBD expressed in HEK293 cells after 20 hrs by luciferase reporter gene assay; format: cell-based
T4 sequence (P51450 whole entry): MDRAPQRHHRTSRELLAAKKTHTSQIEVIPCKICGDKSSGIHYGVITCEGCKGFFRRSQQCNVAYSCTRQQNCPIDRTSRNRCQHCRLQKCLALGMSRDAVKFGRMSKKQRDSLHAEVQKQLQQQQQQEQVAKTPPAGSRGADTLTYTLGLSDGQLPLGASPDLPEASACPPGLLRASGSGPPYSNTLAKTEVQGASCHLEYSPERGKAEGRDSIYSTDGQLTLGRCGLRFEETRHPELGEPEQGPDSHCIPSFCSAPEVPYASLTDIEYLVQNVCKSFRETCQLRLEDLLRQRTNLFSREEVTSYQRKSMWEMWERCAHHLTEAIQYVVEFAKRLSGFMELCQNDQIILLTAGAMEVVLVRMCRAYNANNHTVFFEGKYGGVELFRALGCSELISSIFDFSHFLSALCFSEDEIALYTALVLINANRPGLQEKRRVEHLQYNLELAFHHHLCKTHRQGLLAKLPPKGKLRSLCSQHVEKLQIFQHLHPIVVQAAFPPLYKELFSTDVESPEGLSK

[13] = biological target: T5, Nuclear receptor ROR-gamma (Mus musculus) (UniProt P51450); test: as §1; format: cell-based
T5 sequence (whole entry): T4 sequence (P51450 whole entry)

[14] = Solubility of the compound in KH2PO4/Na2HPO4 buffer at pH 6.8 by shake-flask method; format: physicochemical
[15] = Total clearance in rat at 0.5 mg/kg, iv; format: ADME, organism-based; details: in vivo
[16] = Half life in rat at 0.5 mg/kg, iv; format: ADME, organism-based; details: in vivo
[17] = Tmax in mouse at 30 mg/kg, po; format: ADME, organism-based; details: in vivo
[18] = system: Mus musculus; test: In-vivo transrepression of RORgammat in po dosed mouse assessed as inhibition of IL23-stimulated IL17 production administered 30 mins before and 6 hrs after IL-23 injection in skin intradermally measured after 24 hrs by ELISA; format: functional, organism-based

EC50 [1] [µM] | AUC [2] [ng·h/mL] | AUC [3] [ng·h/mL] | Cmax [4] [ng/mL] | IC50 [5] [µM] | IC50 [6] [nM] | Cmax [7] [ng/mL] | remaining at 2 h [8] [%] | Tmax [11] [min] | IC50 [12] [nM] | Efficacy [13] [%] | solubility thermodynamic [14] [µM] | clearance [15] [mL/min/kg] | half-life [16] [min] | Tmax [17] [h] | SMILES | inhibition in vivo at 100 mg/kg [9] [%] | inhibition in vivo at 30 mg/kg [10] [%] | inhibition [18]
> 30 | 43500 | 96300 | 17800 | > 10 | < 30 | 8350 | 89 | 48 | 340 | 85 | 25 (≈ 13 µg/mL) | 4.33 | 192 | 1.5 | CCS(=O)(=O)c1ccc(CC(=O)Nc2ccc(C(C)(C)C(=O)Nc3ccc(F)cc3F)c(F)c2)cc1 | 63 | 41 | Dose-dependent effect
> 30 | – | – | – | > 10 | < 30 | – | 77 | – | 250 | 85 | 16 (≈ 8.01 µg/mL) | 8.45 | 150 | – | CCS(=O)(=O)c1ccc(CC(=O)Nc2ccc(C(C)(C)C(=O)Nc3ccc(F)cc3)c(F)c2)cc1 | – | – | –
> 30 | 4740 | 23000 | 8450 | > 10 | < 30 | 2700 | 71 | 30 | 74 | 88 | 9 (≈ 4.58 µg/mL) | 15 | 174 | 0.5 | CCS(=O)(=O)c1ccc(CC(=O)Nc2ccc(C(C)(C)C(=O)Nc3cc(C#N)ccn3)c(F)c2)cc1 | 38 | 22 | Dose-dependent effect

Source: ChEMBL document CHEMBL4261613, “Discovery of a potent orally bioavailable retinoic acid receptor-related orphan receptor-gamma-t (RORγt) inhibitor, S18-000003” (Bioorg Med Chem Lett, 2018)
